We go through 91 compounds from PubChem BioAssay AID463203 (Broad Institute, 2010).

Active and inactive are the calls of the source.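 Rule for the calls: active = more than half of replicate measurements showing over 20% loss of kinase signal relative to plate controls; inconclusive = some but at most half of replicates over 20% loss; inactive = no replicate over 20% signal loss.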

In this assay the target is Glycogen synthase kinase-3 alpha (Homo sapiens) (UniProt P49840). The experiment in a line: concentration-response blocking of human GSK3A – biochemical, luminescence, cell-free homogeneous, retest, dose response (AID 463203). The note with it: GSK-3 alpha enzyme, ADP-Glo luminescence, 60 min. Background: In ADP-Glo the light output rises with the ADP produced.

As usually defined, the AC50 is the concentration giving half of the maximal activity seen.

Chain of Glycogen synthase kinase-3 alpha (Homo sapiens) (P49840 whole entry, looked up): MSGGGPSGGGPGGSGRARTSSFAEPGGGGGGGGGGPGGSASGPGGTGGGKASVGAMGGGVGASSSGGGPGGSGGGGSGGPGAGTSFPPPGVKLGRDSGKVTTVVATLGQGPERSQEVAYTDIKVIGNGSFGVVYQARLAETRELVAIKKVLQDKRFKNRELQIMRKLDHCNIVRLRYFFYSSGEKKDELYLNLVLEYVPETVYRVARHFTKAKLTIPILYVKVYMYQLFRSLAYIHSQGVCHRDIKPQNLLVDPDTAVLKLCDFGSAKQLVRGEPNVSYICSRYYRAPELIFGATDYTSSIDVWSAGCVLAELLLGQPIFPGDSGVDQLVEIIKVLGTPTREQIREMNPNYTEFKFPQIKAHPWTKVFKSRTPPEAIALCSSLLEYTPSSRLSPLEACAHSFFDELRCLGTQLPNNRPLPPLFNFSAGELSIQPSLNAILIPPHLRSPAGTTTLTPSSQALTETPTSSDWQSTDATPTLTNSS

With `COCC(=O)Nc1ccc([N+](=O)[O-])cc1OC`, the AC50 is > 30 µM (inactive).

In the case of `CN1CCN(Cc2c(C(=O)N/N=C/c3cccc(Br)c3)nnn2-c2nonc2N)CC1`, the concentration at half-maximal activity (AC50) is 20.2 µM.

Take `O=C(O)C1CC(O)CN1C(=S)Nc1ccccc1` (stereo unspecified): the AC50 is > 30 µM (inactive).

As for `CN(C)C=NC(=O)/C(C#N)=C/c1ccccc1`, the AC50 is > 30 µM (inactive).

Consider `CNC(=O)c1ccc(NC(=O)C2CCN(c3ncnc4sc(C)c(C)c34)CC2)cc1`, for which the AC50 is > 30 µM (inactive).

Take `CCOC(=O)N1CCc2c(sc3nc4n(c(=O)c23)N=C(C)CS4)C1`: the AC50 was > 30 µM (inactive).

Consider `COc1ccc(COC(=O)C2=C(C)NC(=O)NC2c2ccccc2F)cc1` (stereo unspecified), for which the AC50 is > 30 µM (inactive).

For `CCN(C(=O)C1CCCN1S(=O)(=O)c1cccc2nsnc12)c1ccccc1` (stereo unspecified), the AC50 was 23.9 µM.

For `Cc1ccc(S(=O)(=O)Nc2cccc3ncccc23)cc1`, the AC50 is > 30 µM (inactive).

In the case of `C[C@H](CO)N1C[C@H](C)[C@@H](CN(C)S(=O)(=O)c2cccs2)Oc2c(NS(=O)(=O)c3ccc(F)cc3)cccc2C1=O`, the AC50 is > 30 µM (inactive).

Take `COc1ccccc1C(=O)NC(C)c1ccccc1` (stereo unspecified): the AC50 is > 30 µM (inactive).

`Cc1cccc(-c2nnc3n2N=C(c2ccccc2)CS3)c1`: the AC50 was > 30 µM (inactive).

As for `COc1ccc(/C=C2\Oc3cc(OCC(=O)N4CCC[C@H]4C(=O)O)ccc3C2=O)cc1OC`, the AC50 is > 30 µM (inactive).

As for `CCCNC(=O)Cn1c(-c2ccc(F)cc2)cc(C(=O)OCC)c1C`, the AC50 is > 30 µM (inactive).

With `COc1c(OC)c(O)c2c(=O)c(O)c(-c3ccccc3)oc2c1OC`, the AC50 was > 30 µM (inactive).

In the case of `CCN1C(=O)c2ccc(C(=O)NCc3ccc4c(c3)OCO4)cc2C1=O`, the AC50 was > 30 µM (inactive).

For `c1ccc2[nH]c(Cn3nnc4ccccc43)nc2c1`, the AC50 was > 30 µM (inactive).

Take `CNc1nnc(-c2cc3ccccc3oc2=O)s1`: the AC50 was 8.99 µM.

`O=C1Nc2ccccc2/C1=C/c1cnc(-c2ccccc2)[nH]1`: the AC50 was > 30 µM (inactive).

As to `Oc1ccc(-c2nnc(-c3ccc(O)cc3)nn2)cc1`, the AC50 was > 30 µM (inactive).

Turning to `CCSc1cc(N2CCCC2)nc(-c2ccccc2)n1`, the AC50 is > 30 µM (inactive).

Take `Oc1ccc2cccnc2c1`: the AC50 is > 30 µM (inactive).

For `O=S(=O)(Nc1ccc(-c2nnc(SCc3ccc(Cl)cc3)o2)cc1)c1ccccc1`, the AC50 was > 30 µM (inactive).

As to `C[C@H](CO)N1C[C@H](C)[C@@H](CN(C)S(=O)(=O)c2ccc(F)cc2)Oc2c(NC(=O)Cc3ccccc3)cccc2C1=O`, the AC50 is > 30 µM (inactive).

`Cc1cc(=O)[nH]c2c(C)cc(S(=O)(=O)Nc3ccc(O)cc3)cc12`: the AC50 was > 30 µM (inactive).

Regarding `COc1ccccc1C(=O)NNC(=O)c1cccc(Cl)c1`, the AC50 was > 30 µM (inactive).

For `COc1ccc(OC)c(N=c2oc3c(OC)cccc3cc2C(=O)NCc2ccco2)c1`, the AC50 was > 30 µM (inactive).

Take `CCCCSc1nc(N)c(C#N)c(-c2cccs2)c1C#N`: the AC50 is > 30 µM (inactive).

Regarding `Cc1cccc(C)c1NC(=O)COC(=O)Cc1ccsc1`, the AC50 is > 30 µM (inactive).

Regarding `N#Cc1c(-c2ccncc2)c2c([nH]c1=O)-c1ccccc1OC2`, the AC50 was > 30 µM (inactive).

As for `Cc1nc2ncnn2c(C)c1Cc1cccc(F)c1`, the AC50 was > 30 µM (inactive).

Consider `CCOC(=O)c1sc(NC(=O)C2CCC2)cc1C`, for which the AC50 is > 30 µM (inactive).

As to `CC(C)(C)c1cc(-c2nc(N)nc(N)n2)c(O)c(C(C)(C)C)c1`, the AC50 is > 30 µM (inactive).

As for `O=C1NC(=O)/C(=C\c2ccc(OCc3cccc(C(=O)O)c3)c(Cl)c2)N1`, the half-maximal activity concentration (AC50) is 4.85 µM.

For the compound `C/C(=C(/CCO)SSCC1CCCO1)N(C=O)Cc1cnc(C)nc1N` (stereo unspecified), the AC50 is > 30 µM (inactive).

In the case of `Cc1nnc(NC(=O)Oc2ccccc2)s1`, the AC50 was > 30 µM (inactive).

In the case of `O=C(NCCCCCCNC(=O)OCCO)OCCO`, the AC50 is > 30 µM (inactive).

`CN(C)/C=C/c1[nH]c(=O)[nH]c(=O)c1[N+](=O)[O-]`: the AC50 is > 30 µM (inactive).

With `O=c1[nH]c(=O)n(CCC2=CCCCC2)c(O)c1C=NCCCn1ccnc1`, the concentration at half-maximal activity (AC50) was 28.6 µM.

Take `COc1ccc(-c2cc(C(=O)N3CCN(c4ccccc4)CC3)no2)cc1OC`: the AC50 is > 30 µM (inactive).

Regarding `O=C1CCCC/C1=C\Nc1ccc(O)cc1`, the AC50 was 21.6 µM.

In the case of `COc1cccc(-c2c(C(=O)N/N=C(\C)c3cccnc3)nnn2-c2nonc2N)c1`, the AC50 is > 30 µM (inactive).

Regarding `COc1cc(CN2CCN(Cc3ccc([N+](=O)[O-])cc3)CC2)c([N+](=O)[O-])cc1OC`, the AC50 is > 30 µM (inactive).

Consider `Cc1ccc(-c2cn3cccnc3n2)cc1NC(=O)c1ccc(Br)o1`, for which the AC50 is > 30 µM (inactive).

On to `O=C(C[n+]1ccccc1)c1ccc(Cl)cc1`, for which the AC50 is > 30 µM (inactive).

In the case of `COc1ccc(Br)cc1C1CC(=O)N2CN(Cc3ccccc3)CSC2=C1C#N` (stereo unspecified), the AC50 is > 30 µM (inactive).

As for `Cn1c(=O)c2c(-c3ccccc3)n(Cc3ccccn3)cc2n(C)c1=O`, the AC50 is > 30 µM (inactive).

For `COc1cc(C2c3sc(=O)[nH]c3SC3C(=O)N(c4ccc(Br)cc4)C(=O)C32)ccc1O` (stereo unspecified), the AC50 was > 30 µM (inactive).

For `CCSC1(SCC)N=C(N)C2(C#N)C(c3ccc(F)cc3)C12C#N` (stereo unspecified), the AC50 is > 30 µM (inactive).

As for `O=C(NCC1CCCO1)c1ccc(NC(=O)c2cccc([N+](=O)[O-])c2)cc1` (stereo unspecified), the AC50 was > 30 µM (inactive).

Regarding `O=C(Cc1c(F)cccc1Cl)Nc1ncc([N+](=O)[O-])s1`, the concentration at half-maximal activity (AC50) was 2.43 µM.

Regarding `S=c1sc2ccccc2n1CCc1ccncc1`, the AC50 is 4.51 µM.

Take `O=C(NCCCN1CCOCC1)c1ccc(Cl)c([N+](=O)[O-])c1`: the AC50 was > 30 µM (inactive).

With `COc1cc(C(=O)NCCC(=O)NCCN2CCOCC2)cc(OC)c1OC`, the AC50 is > 30 µM (inactive).

For the compound `CNC(=O)NCC12CC3CC(CC(C3)C1)C2`, the AC50 was > 30 µM (inactive).

As to `COc1ccc(CCNc2nc(C)cc(C)n2)cc1OC`, the AC50 is > 30 µM (inactive).

In the case of `O=[N+]([O-])c1cccnc1NCCc1ccccc1`, the AC50 is > 30 µM (inactive).

In the case of `COc1ccc(-c2c(C(C)=O)c(C)nc3sc4c(=O)[nH]nnc4c23)cc1`, the concentration at half-maximal activity (AC50) is 30.1 µM.

In the case of `O=C1CCCC2=C1C(c1cccc(O)c1)c1c(ccc3ncccc13)N2` (stereo unspecified), the AC50 was > 30 µM (inactive).

Take `Cc1ccc(C2C(C#N)=C(N)Oc3n[nH]c(-c4cccnc4)c32)o1` (stereo unspecified): the AC50 is > 30 µM (inactive).

With `COc1ccccc1-c1noc(CSc2nc(N)cc(=O)[nH]2)n1`, the AC50 was > 30 µM (inactive).

As for `Cc1c(CCC(=O)O)c(=O)oc2cc(O)ccc12`, the AC50 is > 30 µM (inactive).

On to `CC(C)c1ccc(C2CC(=O)N3CN(Cc4ccco4)CSC3=C2C#N)cc1` (stereo unspecified), for which the half-maximal activity concentration (AC50) is 21 µM.

Turning to `CN1CCN(c2ccc(NC(=O)c3ccc(Br)o3)cc2)CC1`, the AC50 was > 30 µM (inactive).

On to `N#CC1=C(N)Oc2n[nH]c(-c3cccnc3)c2C1c1cc(F)ccc1F` (stereo unspecified), for which the AC50 is > 30 µM (inactive).

`Cc1ccc(Cn2nc(-c3ccccc3)nc2-c2ccccc2)cc1`: the AC50 is > 30 µM (inactive).

As for `CNC(=O)CSc1nnc(-c2ccco2)n1-c1ccccc1OC`, the AC50 was > 30 µM (inactive).

Consider `Cc1[nH]nc(NCCO)c1[N+](=O)[O-]`, for which the AC50 was > 30 µM (inactive).

In the case of `N#CC(C#N)=Cc1c[nH]c(=O)c(C#N)c1Nc1ccccc1`, the concentration at half-maximal activity (AC50) is 9.4 µM.

Consider `Fc1ccc(-c2nc3n(n2)Cc2ccccc2-3)cc1`, for which the AC50 is > 30 µM (inactive).

For `CC(C)CCSc1cc(NCCO)c([N+](=O)[O-])c2nonc12`, the AC50 is > 30 µM (inactive).

With `Clc1ccccc1/C=N/Nc1cc(N2CCOCC2)ncn1`, the AC50 was > 30 µM (inactive).

`COc1cccc(CC(=S)N2CCOCC2)c1`: the AC50 is > 30 µM (inactive).

Regarding `O=C(Nc1cccc(-c2cnc3ccccc3n2)c1)c1cccc(NC(=O)c2ccco2)c1`, the AC50 is > 30 µM (inactive).

With `Cc1cccc(-n2nc(C)c3c2NC2=C(C(=O)CCC2)C3c2ccccn2)c1` (stereo unspecified), the AC50 is > 30 µM (inactive).

Take `CCN=C(NC#N)SCc1c(F)cccc1Cl`: the AC50 is > 30 µM (inactive).

`O=c1[nH]c(=O)n(Cc2ccco2)c(O)c1/C=N/N1CCCCC1`: the AC50 was > 30 µM (inactive).

`COc1cc(CN2CCN(Cc3ccc(C)cc3)CC2)c([N+](=O)[O-])cc1OC`: the AC50 was > 30 µM (inactive).

For `CCOC(=O)c1ccc(N2C=C(C(=O)OC)C(c3ccc(OC)c(O)c3)C(C(=O)OC)=C2)cc1`, the AC50 is > 30 µM (inactive).

In the case of `O=C(Nc1ccccc1-c1nnc(SCc2ccccc2)o1)c1ccccc1`, the AC50 is > 30 µM (inactive).

Consider `CCC(=O)NC(=S)Nc1cccc(C(C)=O)c1`, for which the AC50 was > 30 µM (inactive).

Consider `NC(=O)c1ccsc1NC(=O)C1CCCCC1`, for which the AC50 was > 30 µM (inactive).

For the compound `CN(C)CCCNc1ccc(S(N)(=O)=O)cc1[N+](=O)[O-]`, the AC50 is > 30 µM (inactive).

Turning to `COc1ccc(/C=N\NC(=O)c2ccccc2Br)cc1COc1ccccc1`, the AC50 is > 30 µM (inactive).

With `CC(=O)c1sc(NC(=O)CN2C(=O)C3CCCCC3C2=O)nc1-c1ccccc1` (stereo unspecified), the AC50 is 8.54 µM.

In the case of `CCOC(=O)c1cnc2c(C(F)(F)F)cccc2c1N1CCN(C)CC1`, the AC50 is > 30 µM (inactive).

With `Cc1cccc(N(CC(O)CN2CCCC2)S(=O)(=O)c2ccccc2)c1` (stereo unspecified), the AC50 was > 30 µM (inactive).

Take `CCOc1ccc(-c2nonc2NC(=O)c2ccco2)cc1`: the AC50 was > 30 µM (inactive).

For the compound `COc1cc(C2CC(=O)c3c([nH]c(C(=O)OCCOC(C)C)c3C)C2)cc(OC)c1OC` (stereo unspecified), the AC50 was > 30 µM (inactive).

Regarding `Brc1cccc(CSc2nnc(-c3ccncc3)o2)c1`, the AC50 was 7.58 µM.

As for `Cc1cc(OCc2cc(C(=O)O)oc2C)c2c3c(c(=O)oc2c1)CCCC3`, the AC50 is 21.6 µM.
